Test results from patent publication US7235531B2, “Tachykinin-like polypeptides and use thereof” (Takeda Pharmaceutical Company, priority 1999, dated 2007).
No end group written: not given here.

Columns and labels:
anesthetized rats = assay: Activity of ATT(35-45) on blood pressure in anesthetized rats; type: in vivo, Male Wistar rats; conditions: for decrease in blood pressure: left femoral vein (i.v.), n=4, mean±standard deviation
Method: The activity of ATT(35-45) on blood pressure in anesthetized rats was determined in the following manner. Male Wistar rats (weighing 300 to 400 g, by CLEA Japan Inc.) were anesthetized with thiobutabarbital sodium (100 mg/kg i.p.), a catheter (SP-55) for measuring blood pressure connected to a transducer was inserted into the left carotid artery, and a catheter (SP-35) for intravenous administration was inserted into the left femoral vein. The peptide was dissolved in physiological saline containing 0.05% BSA, and doses of 0.01, 0.1, and 1 nmol/kg were administered through the left femoral vein. The blood pressure was continuously recorded on a polygraph (NEC Sanei).

[1] = test system: guinea pig ileum specimens; assay: Contracting activity of ATT(35-45) on guinea pig ileum specimens; type: cell-based; conditions: 10^−10 M to 3×10^−7 M
Method: The horizontal axis in the figure represents the dose (M) of ATT(35-45), and the vertical axis represents the rate of contraction relative to the contraction of the guinea pig ileum specimens induced by 10^-6 M acetylcholine.
The contracting activity of ATT(35-45) on guinea pig ileum specimens was determined in the following manner. 13 to 15-week old male guinea pigs (std: Hartley) were exsanguinated, and the ileum was excised. The ileum was cut to a length of 1.5 cm to prepare specimens. The specimens were aerated with a gas mixture (95% O^2-5% CO2) while suspended in Tyrode's solution (137.9 mM NaCl, 2.7 mM KCl, 1.8 mM CaCl2, 0.5 mM MgCl2, 1.1 mM NaH2PO4, 11.9 mM NaHCO3, and 5.6 mM glucose) maintained at 37° C., and the isotonic contractions under a 0.5 g load were recorded. The peptide was administered cumulatively in the organ bath.

TGKASQFFGLM-NH2 [ATT(35-45), Thr-Gly-Lys-Ala-Ser-Gln-Phe-Phe-Gly-Leu-Met-NH2]
decrease in blood pressure (anesthetized rats; 0.01 nmol/kg): 12.3±0.8 mmHg
decrease in blood pressure (anesthetized rats; 0.1 nmol/kg): 21.5±1.8 mmHg
decrease in blood pressure (anesthetized rats; 1 nmol/kg): 33.8±6.6 mmHg
effect on blood pressure (in words) (anesthetized rats; doses of 0.01, 0.1 and 1 nmol/kg i.v.): dose-dependent decreases in blood pressure
contraction of guinea pig ileum specimens (in words) [1]: concentration-dependent contraction
maximum contraction relative to the contraction induced with 10^−6 M acetylcholine ([1]; guinea pig ileum): about 90%
